Assay results: US6017958A, “Method of treating malignant tumors with thyroxine analogues having no significant hormonal activity” (Octamer, Inc., priority 1997, dated 2000)
pIC50: −log10 of the molar value. Read-outs that look alike come from different tables or passages of the source.

Experiments:
[1] = test system: protein phosphatase 2A (DU-145); assay: Phosphatase activity, DU-145; format: cell-based, human
Method: Compounds 1-13 were tested for protein phosphatase 2A activation in malignant tumor cell cultures in vitro according to the protocol described in Bauer et al., 1996, "Modification of Growth Related Enzymatic Pathways and Apparent Loss of Tumorigenicity of a Ras-Transformed Bovine Endothelial Cell Line by Treatment with 5-Iodo-6-Amino-1,2-Benzopyrone (INH2 BP)," International J. of Oncology 8:239-252. All other compounds were ineffective.

[2] = test system: A-549 (lung cancer) cell extracts, esterase; assay: Esterase cleavage of DIME by A-549 cell extracts (TLC); format: in vitro ADME, human
Method: In the experiment shown in lines 1 and 2 the esterase activity of the extract occurs during 4 hours incubation with 1 μM DIME. […] Lines 3 and 4 depict the same experiments as in lines 1 and 2, except the cell extracts were prepared from intact cells preincubated for 24 hours with 1 μM DIME, then washed and extracted.
(a) mouse tissue homogenate (brain, kidney, liver lung) consisting of 0.2 g of tissue in 1.0 ml. of homogenization buffer (50 mM Tris (pH 7.4), 400 mM NaCl, 10 mM MgCl2, 1 mM EDTA, 0.5% NP-40, 0.5 mM PMSF) each were combined with 1.0 ml of MES buffer (100 mM ph 6.5) containing 20 μM [^14 C]-DIME (10.55 mCi/mmol), and the mixtures were incubated at 37° C. for 4 hours. Then to each tube was added sequentially ethyl acetate (1.5 ml), ammonium sulfate (900 mg) and 60% perchloric acid (160 μl), with vortexing after each addition. After standing for 10 minutes, phase separation was enhanced by benchtop centrifugation. The upper (ethyl acetate) layer was drawn off, and the lower aqueous and interphase material was extracted with a second portion of ethyl acetate (1.5 ml). The ethyl acetate extracts (combined) contained more than 90% of the total cpm present in the original incubate (ca. 4×10^5 cpm). […]

[3] = test system: MDA-MD-231 (mammary cancer); assay: Cytocidal action/growth inhibition, MDA-MB-231; format: cell-based; settings: Homo sapiens
Method: (§1) Seven human cancer cell lines were obtained from the American Tissue Culture Collection (Rockville, Md.) and maintained in the recommended growth media. Cells were seeded into wells (2 cm^2) at a density of 2×10^4 cells/cm^2. Various concentrations of Compounds 1-13 were added to the media at the time of seeding.
(§2) The cultures were incubated for 72 hours at 37° C. (5% CO2 atmosphere). Following incubation, cells were detached with trypsin and counted in a hemocytometer.
(§3) I100 designates the concentration at which no viable cells remained; I50 the concentration at which 50% viable cells remained, as compared to a control.
(§4) E-ras 20 cells were cultured as reported, Bauer et al., 1996, "Modification of growth related enzymatic pathways and apparent loss of tumorigenicity of a ras-transformed bovine endothelial cell line by treatment with 5-iodo-6-amino-1,2-benzopyrone (INH2 BP)" Intl. J. Oncol. 8:239-252; HT-144 (melanoma), DU-145 (prostatic cancer), HeLa (cervical cancer), HL 60 (promyelocytic leukemia), MDA-MB-231 (mammary cancer), SK-Br-3 (mammary cancer), T47D (ductal mammary cancer), A559 (lung cancer) were obtained from American Type Culture Collection (Rockville, Md.) and cultured in prescribed media. The effect of DIME was tested in cultures with a starting cell density of 2×10^4 cells per cm^2 and comparison of the effect of DIME on cell growth (intact cells identified by Trypan blue exclusion) was assayed by direct cell counting after trypsinization in a hemocytometer 72 hours after drug addition.
(§5) For DIME-exposure experiments cells were seeded into 2 cm^2 wells at a density of 2×10^4 cells/cm^2. DIME at various concentrations was added to the medium at the time of seeding. The cell cultures were then incubated for 3 days (37° C. in 5% at CO2 atmosphere).

[4] = test system: DU 145 (prostate cancer); assay: Cytocidal action/growth inhibition, DU 145; format: cell-based; settings: Homo sapiens
Method: as §1, §2, §3, §4, §5

[5] = test system: T47D (ductal mammary cancer); assay: Cytocidal action/growth inhibition, T47D; format: cell-based; settings: Homo sapiens, 72 h
Method: as §1, §2, §3, §4, §5

## COC(=O)c1cc(I)c(Oc2ccc(OC)cc2)c(I)c1 [Compound 1, Methyl 3,5-diiodo-4-(4'-methoxyphenoxy)benzoate]
[1]; 50 μM DIME, untreated 12.1 ± 3
  Phosphatase Activity: 19.1 ± 2.5 fmol Pi/mg protein × min.
[1]; 50 μM, DU-145 cells
  activation of protein phosphatase 2A, fold: at least two-fold
[2]; A-549 cells
  ester bond cleavage by A-549 cells: readily cleave the ester bond
[2]; intact cells preincubated 24 hours with 1 μM DIME
  esterase induction: esterase is not induced by DIME
[3]; MDA-MB-231, 72 h, day 3, Table 11, read-out: I50 (day 3)
  pIC50: 6.40
[3]; MDA-MB-231, 72 h, Table 4, read-out: I50
  pIC50: 6.40
[3]; MDA-MB-231, 72 h, Table 4, read-out: I100 (no viable cells remained)
  IC100: 3 µM
[4]; DU-145, 72 h, day 3, Table 11, read-out: I50 (day 3)
  pIC50: 6.30
[4]; DU-145, 72 h, Table 4, read-out: I50
  pIC50: 6.30
[4]; DU-145, 72 h, Table 4, read-out: I100 (no viable cells remained)
  IC100: 3.5 µM
[5]; Table 4, read-out: I50
  pIC50: 6.15
[5]; Table 4, read-out: I100 (no viable cells remained)
  IC100: 3.5 µM
[5]; day 3, Table 11, read-out: I50 (day 3)
  pIC50: 6.15
